# Assay results as given in patent US8063231B2, “Methods of treating alpha adrenergic mediated conditions” (Allergan, Inc., priority 2008, dated 2011).
# Values joined by “and” are separate entries in the source; they are usually repeats but may differ in a detail not shown here. Identical values can stand only once.
# Legend:
# Chung model rats = assay: Tactile allodynia reversal in Chung model of chronic pain (spinal nerve ligation, von Frey hairs); format: in vivo, rat
# Procedure: Various concentrations of N-(2,3-dichlorobenzyl)-4,5-dihydro-1H-imidazol-2-amine were administered orally to Chung model rats. A model in accordance with Kim and Chung 1992, Pain […], pp 355-363 (Chung model), for chronic pain (in particular peripheral neuropathy) involves the surgical ligation of the L5 (and optionally the L6) spinal nerves on one side in experimental animals. Rats recovering from the surgery gain weight and display a level of general activity similar to that of normal rats. However, these rats develop abnormalities of the foot, wherein the hindpaw is moderately everted and the toes are held together. More importantly, the hindpaw on the side affected by the surgery appears to become sensitive to pain from low-threshold mechanical stimuli, such as that producing a faint sensation of touch in a human, within about 1 week following surgery. This sensitivity to normally non-painful touch is called “tactile allodynia” and lasts for at least two months. The response includes lifting the affected hindpaw to escape from the stimulus, licking the paw and holding it in the air for many seconds. None of these responses is normally seen in the control group.
# Rats are anesthetized before surgery. The surgical site is shaved and prepared either with betadine or Novacaine. Incision is made from the thoracic vertebra XIII down toward the sacrum. Muscle tissue is separated from the spinal vertebra (left side) at the L4-S2 levels. The L6 vertebra is located and the transverse process is carefully removed with a small rongeur to expose the L4-L6 spinal nerves. The L5 and L6 spinal nerves are isolated and tightly ligated with 6-0 silk thread. The same procedure is done on the right side as a control, except no ligation of the spinal nerves is performed.
# A complete hemostasis is confirmed, then the wounds are sutured. A small amount of antibiotic ointment is applied to the incised area, and the rat is transferred to the recovery plastic cage under a regulated heat-temperature lamp. On the day of the experiment, at least seven days after the surgery, typically six rats per test group are administered the test drugs by intraperitoneal (i.p.) injection or oral gavage. […], the compounds are formulated in d H2O and given in a volume of 1 ml/kg body weight using an 18-gauge, 3 inch gavage needle that is slowly inserted through the esophagus into the stomach.
# Tactile allodynia is measured prior to and 30 minutes after drug administration using von Frey hairs that are a series of fine hairs with incremental differences in stiffness. Rats are placed in a plastic cage with a wire mesh bottom and allowed to acclimate for approximately 30 minutes. The von Frey hairs are applied perpendicularly through the mesh to the mid-plantar region of the rats' hindpaw with sufficient force to cause slight buckling and held for 6-8 seconds. The applied force has been calculated to range from 0.41 to 15.1 grams. If the paw is sharply withdrawn, it is considered a positive response. A normal animal will not respond to stimuli in this range, but a surgically ligated paw will be withdrawn in response to a 1-2 gram hair. The 50% paw withdrawal threshold is determined using the method of Dixon, W. J., Ann. Rev. Pharmacol. Toxicol. 20:441-462 (1980) hereby incorporated by reference. The post-drug threshold is compared to the pre-drug threshold and the percent reversal of tactile sensitivity is calculated based on a normal threshold of 15.1 grams.
# wild type rats = assay: Sedative effects (total activity counts) after intraperitoneal injection; format: in vivo, rat; details: for Sedative Effect (IP): 30 minutes post injection
# Procedure: FIG. 2 depicts sedative effects (total activity counts) 30 minutes post intraperitoneal injection of 1 mg/kg and 10 mg/kg doses of N-(2,3-dichlorobenzyl)-4,5-dihydro-1H-imidazol-2-amine.
# Data was acquired from wild type rats administered N-(2,3-dichlorobenzyl)-4,5-dihydro-1H-imidazol-2-amine intraperitoneally (IP). Rats were split into groups of six and administered 1 mg/kg or 10 mg/kg doses of N-(2,3-dichlorobenzyl)-4,5-dihydro-1H-imidazol-2-amine to assess the sedative effects of the administration of the agent.
smiles,measurement,setting,value
"Clc1cccc(CNC2=NCCN2)c1Cl [N-(2,3-dichlorobenzyl)-4,5-dihydro-1H-imidazol-2-amine]","Peak Allodynia Reversal (Oral, 30 min.)",Chung model rats; 30 μg/kg oral,28% and 28% +/− 9.5%
same,"Peak Allodynia Reversal (Oral, 30 min.)",Chung model rats; 100 μg/kg oral,68% +/− 12.7%
same,"Peak Allodynia Reversal (Oral, 30 min.)",Chung model rats; 300 μg/kg oral,84% +/− 7.5%
same,Time at which analgesic effect was seen (peak percent allodynia reversal),"Chung model rats; single oral dose, FIG. 1",about 30 minutes
same,Time of decrease of allodynia reversal to baseline,"Chung model rats; single oral dose, FIG. 1",about 120 minutes
same,Sedative Effect (IP),wild type rats; 1 mg/kg IP,No significant effect
same,Sedative effect (in words),wild type rats; 10 mg/kg IP,significant sedative effect
same,Sedative Effect (IP),wild type rats; 10 mg/kg IP,23% sedating
